# Results published in US8722014B2, “1 H-[1, 2, 3] triazole substituted amino acids and uses thereof” (Washington University, priority 2009, dated 2014).
# System: 9L gliosarcoma cells
# Experiment: Cell uptake assay in 9L gliosarcoma cells with amino acid transport inhibitors (cluster tray method)
# Assay type: cell-based
# Conditions: for percent uptake relative to control, Na ASC: L-Ala/L-Ser/L-Cys 3.3 mM each
# Experimental: The 9L gliosarcoma tumor is an established model for human glioblastoma (brain tumor). Cell uptake assays were performed with 9L gliosarcoma cells using both (R)-[^18F]4 and (S)-[^18F]4. 9L gliosarcoma cells were cultured with Earle's minimal essential medium (MEM) augmented with 10% newborn calf serum, 1% 200 mM L-glutamine, 1% MEM vitamin solution and 1% 10 mM non-essential amino acids (NEAA). The cells were passaged every two to three days prior to use with no more than a total of 20 passages. Two to three days before the uptake assays, suspension of 2.5 or 5.0×10^4 cells in culture media were aliquoted into Costar 24 well plates to achieve log growth phase with approximately 70% confluency at the time of the uptake assay (approximately 10^5 cells per well).
# Cell uptake assays were performed using the cluster tray method reported in Gazzola et al., Anal. Biochem. 115: 368-374, 1981. Two buffers were used for the assays, a phosphate buffered saline solution and a sodium-free phosphate buffered choline chloride solution. […] The choline buffer was the same as the sodium buffer except choline chloride was substituted for sodium chloride and choline phosphate dibasic was substituted for sodium phosphate dibasic. A 250 mM solution of choline phosphate dibasic was prepared by boiling 95.6 mL of 75% of choline bicarbonate (0.500 mol) and 16.9 mL of 85% aqueous phosphoric acid (0.247 mol) in 750 mL of water for 60 min. The solution was brought to a total volume of 1 liter with water and brought to pH 7.4 with concentrated aqueous hydrochloric acid. The pH of the sodium and choline buffer solutions was adjusted to 7.4 with concentrated aqueous hydrochloric acid prior to use.
# A variety of inhibitor conditions were used to determine which amino acid transport system or systems were responsible for cellular uptake of (R)- and (S)-[^18F]-4. The N-methylated amino acid, methylaminoisobutyric acid (MeAIB), is a selective system A substrate and has been used extensively as a competitive inhibitor of system A transport (Shotwell, M. A., et al. Biochem. Biophys. Acta. 737: 267-284, 1983; Christensen, H. N., et al., J. Biol. Chem. 240: 3609-3616, 1965) The bulky neutral amino acid, 2-aminobicyclo-(2,2,1)-heptane-2-carboxylic acid (BCH), has been extensively used as a competitive inhibitor of system L transport, and under sodium-free conditions BCH is a selective system L inhibitor (Palacin, M., et al., Physiol. Rev. 78: 969-1054, 1998. In the presence of sodium, BCH is also an inhibitor of system B^0,+ which is a sodium-dependent amino acid transporter that typically is a minor transport systems in most tissues. A mixture of L-alanine (L-Ala), L-serine (L-Ser) and L-cysteine (L-Cys), (ASC), was used as a non-specific inhibitor condition, and this combination of amino acids is expected to inhibit a broad range of amino acid transport systems including system ASC. Because of the results of initial cell uptake assays described below and the structural relationship of the 1H-1,2,3-triazole group to the imidazole side chain of L-histidine (L-His), additional uptake assays using L-His as well as the basic side chain amino acids L-arginine (L-Arg) and L-lysine (L-Lys) individually and together (RKH) as competitive inhibitors were performed.
# The following inhibitors were added to the appropriate sodium or choline buffer: N-methyl aminoisobutyric acid (MeAIB, 10 mM), a mixture of L-alanine/L-serine/L-cysteine (ASC, 3.3 mM of each amino acid), (R,S)-(endo,exo)-2-aminobicyclo(2,2,1)-heptane-2-carboxylic acid (BCH, 10 mM), L-arginine (Arg, 10 mM), L-lysine (Lys, 10 mM), L-histidine (His, 10 mM) and a mixture of Arg/Lys/H is (RKH, 3.3 mM of each amino acid). For control conditions, 10 mM of sucrose was added to maintain consistent osmolality relative to the inhibitor conditions. The pH of each solution of inhibitor in buffer was adjusted as necessary to 7.40 with 3 M aqueous hydrochloric acid prior to use in cell uptake assays. […]
structure (smiles),measurement,setting,value
"Cl.N[C@@H](Cc1cn(CC[18F])nn1)C(=O)O [(S)-[^18F]4, (S)-2-amino-3-[1-(2-fluoroethyl)-1H-[1,2,3]triazol-4-yl]propanoic acid hydrochloride salt-[^18F]]",inhibition of uptake by ASC condition relative to the sodium control,"neutral amino acid inhibitor assay, p<0.001",89%
same,"inhibition of uptake by L-His, L-Arg and L-Lys",range over the three basic amino acids,50-69%
same,inhibition of uptake by L-Arg relative to control,sodium buffer,50%
same,inhibition of uptake by L-His relative to control,sodium buffer,69%
same,"percent uptake relative to control, Na RKH","sodium buffer, Arg/Lys/His 3.3 mM each (FIG. 4/6)",37±6%
same,"percent uptake relative to control, Na BCH","sodium buffer, BCH 10 mM, 30 sec uptake, neutral amino acid inhibitor assay (FIG. 3/5)",74±13%
same,"percent uptake relative to control, Na ASC","sodium buffer, 30 sec uptake, neutral amino acid inhibitor assay (FIG. 3/5)",11±7%
same,"percent uptake relative to control, Na ASC","sodium buffer, basic side chain amino acid inhibitor assay (FIG. 4/6)",2.4±3.5%
same,"percent uptake relative to control, Na Arg","sodium buffer, L-arginine 10 mM (FIG. 4/6)",50±9%
same,"percent uptake relative to control, Na His","sodium buffer, L-histidine 10 mM (FIG. 4/6)",31±5%
same,"percent uptake relative to control, Na Lys","sodium buffer, L-lysine 10 mM (FIG. 4/6)",46±4%
same,"percent uptake relative to control, Na MeAIB","sodium buffer, MeAIB 10 mM, 30 sec uptake, neutral amino acid inhibitor assay (FIG. 3/5)",82±7%
same,inhibition of uptake by BCH versus control in the presence of sodium,sodium control vs sodium BCH,26%
same,inhibition of uptake by substituting choline for sodium,sodium control vs. choline control,42%
same,reduction of uptake by BCH relative to the choline control,sodium free conditions,approximately 50%
same,"percent uptake relative to control, Cho BCH","sodium-free choline buffer, BCH 10 mM, relative to sodium control (FIG. 3/5)",30±6%
same,"percent uptake relative to control, Cho sucrose","sodium-free choline buffer, sucrose 10 mM, relative to sodium control (FIG. 3/5)",58±7%
same,inhibition of uptake by MeAIB,"system A inhibitor MeAIB, sodium buffer",no significant inhibition
